Entries after “also recorded” stand apart in the source; their conditions may differ.
Key:
[1] = tested on: SOD1 A4V iMNs; assay: Survival of SOD1 ALS iMNs; format: cell-based, human; conditions: neurotrophic factor withdrawal; DMSO or 3 uM apilimod
Experimental: (§1) (A) Survival of control or SOD1 A4V iMNs with DMSO or 3 uM apilimod. (B) Survival of TDP-43 G298S iMNs with DMSO or 3 uM apilimod. (C) Survival of MAPT V337M or isogenic control iNs.
PIKFYVE inhibition rescues the survival of TARDBP ALS, SOD1 ALS, and MAPT FTD patient neurons. Since the accumulation of misfolded proteins is a common disease mechanism in all forms of ALS, FTD, and Alzheimer's disease, it was reasoned that inducing secretory autophagy might rescue neurodegeneration in diverse patients. iMNs were generated from ALS patients harboring mutations in TARDBP or SOD1 as well as NGN2-induced neurons (iNs) from MAPT^V337M FTD. […] 2 additional isogenic pairs of iPSC lines from MAPT FTD patients, 2 additional TARDBP ALS iPSC lines, and 2 additional SOD1 ALS iPSC lines were all obtained.

[2] = tested on: TDP-43; assay: Nuclear:cytoplasmic TDP-43 in sporadic ALS iMNs; format: cell-based, human; conditions: DMSO or apilimod
[3] = tested on: sporadic ALS iMNs; assay: Survival of sporadic ALS iMNs
Excerpt: (A) Survival of control (CTRL) and C9ORF72 ALS/FTD patient (C9-ALS) iMNs with a 12-hour pulse treatment of excess glutamate shown for each individual line separately. iMNs quantified from 3 independent iMN conversions per line. (B-D) Immunofluorescence analysis of total TDP-43 (B) and quantification of the ratio of nuclear to cytoplasmic TDP-43 in control, C9-ALS (C), or sporadic ALS (D) iMNs. MNs from 2 controls and 2 C9-ALS patients (C) or 4 sporadic ALS patients (D) were quantified. n=30 (controls), 30 (C9-ALS/FTD), or 36 (sporadic) iMNs per line per condition from 2 biologically independent iMN conversions of 2 control, 2 C9-ALS/FTD, or 4 sporadic ALS lines were quantified. Each gray circle represents a single iMN. Median±interquartile range. Unpaired Mann-Whitney test. Scale bars: 5 μm. Dotted lines outline the nucleus and cell body. (E) Survival of control and sporadic iMNs with glutamate treatment. iMNs quantified from 3 independent iMN conversions per line. For iMN survival experiments, significance was measured by 2-sided log-rank test using the entire survival time course.
(B) Survival of C9-ALS/FTD iMNs with DMSO or apilimod. (C) Survival of sporadic ALS induced motor neurons (iMNs) with DMSO or apilimod. (D) Survival of C9-ALS/FTD iMNs with a scrambled ASO or PIKFYVE ASOs, 100 iMNs per group. […] Unpaired t-test. iMN survival experiments analyzed by log-rank test. […]

[4] = tested on: C9ORF72 DPRs; assay: DPR levels in C9ORF72 iNs; format: cell-based, human
Excerpt: 2000 approved drugs and 1800 target-annotated tool compounds were screened on C9ORF72 FTD iNs.

[5] = tested on: MAPT V337M iNs; assay: Survival of MAPT FTD iNs; format: cell-based, human; conditions: DMSO or apilimod (3 uM in FIG. 28)
Experimental: (§2) (A) Survival of C9ORF72 iNs with DMSO or apilimod. Log-rank test, 100 iNs per group. […] Log-rank test, 100 iNs per group. […] Mean+/−s.e.m. Kruskal-Wallis Test.
as §1
Mutations in MAPT cause FTD with tau aggregates. To determine if iNs from FTD patients display neurodegenerative phenotypes, an established method to generate cortical neurons from iPSCs by forced expression of NGN2 was used. 3 FTD patient iPSC lines harboring a MAPTV337M mutation and their CRISPR-edited isogenic controls from a published cell bank were utilized. Neurons from MAPT-mutant iPSCs display increased phosphorylated and oligomeric tau, similar to post-mortem patient tissue (FIG. 18A). […] Thus, MAPT iNs display key features of FTD with tau pathology.
PIKFYVE inhibition rescues the survival of TARDBP ALS, SOD1 ALS, and MAPT FTD patient neurons. Since the accumulation of misfolded proteins is a common disease mechanism in all forms of ALS, FTD, and Alzheimer's disease, it was reasoned that inducing secretory autophagy might rescue neurodegeneration in diverse patients. iMNs were generated from ALS patients harboring mutations in TARDBP or SOD1 as well as NGN2-induced neurons (iNs) from MAPT^V337M FTD. […]

[6] = tested on: C9-FTD iNs; assay: Exosome secretion from iNs; format: cell-based, human
Excerpt: (A) […] of exosomes from apilimod-treated C9-FTD iNs. (B) Western blot of TSG101, TDP-43, and Neurofilament heavy chain levels in the exosome fraction secreted from control or C9-FTD iNs upon apilimod treatment. (C,D) Quantification of the exosome marker TSG101 (C) or TDP-43 (D) in the exosome fraction of control and C9-FTD iNs treated with DMSO, apilimod, or apilimod+GW4869. Kruskal-Wallis test for B, C. N=3 biological replicates per condition, one line per genotype. (E) Number of poly(GR)-GFP+ exosomes secreted from iNs expressing exogenous poly(GR)-GFP upon DMSO or apilimod treatment. N=4 biological replicates. Exosomes were labeled with CFSE-red dye to enable detection by FACS. Unpaired t-test.
To test this, exosome release from iNs upon PIKFYVE inhibition was examined. […] Thus, PIKFYVE inhibition induces the secretion of TDP-43 and C9ORF72 DPRs from iNs
PIKFYVE inhibition rescues neurodegeneration through secretory autophagy.

[7] = tested on: Drosophila larvae expressing GR dipeptide repeats; assay: NMJ degeneration in poly(GR) Drosophila ALS model; format: in vivo
Experimental: Apilimod (30 μM) was fed to control and larvae expressing 100× (A,C) or 36× (B,D) GR dipeptide repeats. […] Unpaired t-test. **p<0.01, ***p<0.001.
Testing the efficacy of PIKFYVE suppression in vivo. The fruit fly Drosophila is a powerful genetic system for studying the effects of ALS gene products on neuromuscular junction (NMJ) function. […] It was shown that overexpression of wild-type or mutant TDP-43, SOD1, or the C9ORF72 repeat expansion in Drosophila larvae causes neurodegeneration and an increase in the time required for larvae to right themselves after being turned on their dorsal side, reflecting a decrease in motor function (FIG. 30A-C). […] Overexpression of the C9ORF72 DPR poly(GR)(36 or 100 repeats) causes a dramatic reduction in synaptic arborization, active zone number, and synaptic strength at NMJs (FIG. 31A-D).

[8] = tested on: TDP-43; assay: TDP-43 localization in C9ORF72 iNs; format: cell-based, human; conditions: DMSO or apilimod
Excerpt: as §2

[9] = apilimod 30 μM fed to larvae expressing poly(GR)
[10] = apilimod 30 μM fed to larvae expressing poly(GR), listed as Apilimod

SMILES: Cc1cccc(/C=N/Nc2cc(N3CCOCC3)nc(OCCc3ccccn3)n2)c1 [apilimod]
- survival of SOD1 ALS iMNs [1]: rescued the survival
- nuclear localization of TDP-43 in sporadic ALS iMNs [2]: rescued the nuclear localization of TDP-43
- sporadic ALS iMN survival [3]: one of the most potent
- DPR levels in C9ORF72 iNs [4]: lowered DPR levels
- survival of MAPT FTD iNs [5]: potently rescued; also recorded: rescued the survival
- release of TSG101+ exosomes from iNs ([6]; electron microscopy and western blotting): increased release of TSG101+ exosomes
- poly(GR)-GFP+ exosomes released from iNs ([6]; iNs expressing poly(GR)50-GFP, FACS of CFSE-labelled exosomes): released significantly more poly(GR)-GFP+ exosomes
- TDP-43 in exosomes from C9ORF72 FTD iNs ([6]; western blot of exosome fraction): contained high levels of TDP-43
- NMJ degeneration ([7]; apilimod 30 μM): suppresses NMJ degeneration
- NMJ boutons [7, 9]: More active zones and NMJ boutons
- number of active zones at NMJ [7, 9]: More active zones
- synaptic strength (EPSP amplitude) [7, 9]: enhanced synaptic strength
- number of active zones at NMJ [7, 10]: partially rescues
- synaptic strength (EPSP amplitude) [7, 10]: partially rescues
- TDP-43 mislocalization in C9ORF72 iNs [8]: rescued TDP-43 mislocalization

Source: patent US20230098111A1, “COMPOSITIONS AND METHODS TO TREAT NEUROLOGICAL DISEASES” (University of Southern California, priority 2020, published 2023)
